From ChEMBL document CHEMBL1147864, “Synthesis of new sugar derivatives from Stachys sieboldi Miq and antibacterial evaluation against Mycobacterium tuberculosis, Mycobacterium avium, and Staphylococcus aureus” (2007)
Values after ≈ are worked out from the molar mass of the structure shown.

How the values were obtained:
Format in all cases: functional
Conditions in all cases: 336 h
[1] = test system: Mycobacterium tuberculosis; test: Antimycobacterial activity against isoniazide-rifampicin-streptomycin-ethambutol-resistant Mycobacterium tuberculosis E-1-40 after 2 weeks by broth dilution method
[2] = test system: Mycobacterium tuberculosis; test: Antimycobacterial activity against isoniazide-rifampicin-streptomycin-ethambutol-resistant Mycobacterium tuberculosis N-5-2 after 2 weeks by broth dilution method
[3] = test system: Mycobacterium tuberculosis; test: Antimycobacterial activity against isoniazide-rifampicin-ethambutol-resistant Mycobacterium tuberculosis A-4-30 after 2 weeks by broth dilution method
[4] = test system: Mycobacterium tuberculosis; test: Antimycobacterial activity against rifampicin resistant Mycobacterium tuberculosis A-2-4 after 2 weeks by broth dilution method
[5] = test system: Mycobacterium tuberculosis; test: Antimycobacterial activity against isoniazide-rifampicin-streptomycin-ethambutol-resistant Mycobacterium tuberculosis U-4-6 after 2 weeks by broth dilution method
[6] = test system: Mycobacterium tuberculosis; test: Antimycobacterial activity against isoniazide-rifampicin-streptomycin-ethambutol-resistant Mycobacterium tuberculosis Z-1-2 after 2 weeks by broth dilution method
[7] = test system: Mycobacterium tuberculosis; test: Antimycobacterial activity against streptomycin resistant Mycobacterium tuberculosis A-4-8 after 2 weeks by broth dilution method
[8] = test system: Mycobacterium tuberculosis; test: Antimycobacterial activity against isoniazide-rifampicin-streptomycin-ethambutol-resistant Mycobacterium tuberculosis V-1-16 after 2 weeks by broth dilution method
[9] = test system: Mycobacterium tuberculosis; test: Antimycobacterial activity against isoniazide-rifampicin-streptomycin-ethambutol-resistant Mycobacterium tuberculosis Q-4-1 after 2 weeks by broth dilution method
[10] = test system: Mycobacterium tuberculosis; test: Antimycobacterial activity against isoniazide-streptomycin resistant Mycobacterium tuberculosis A-4-25 after 2 weeks by broth dilution method
[11] = test system: Mycobacterium tuberculosis; test: Antimycobacterial activity against isoniazide-rifampicin-ethambutol-resistant Mycobacterium tuberculosis J-1-19 after 2 weeks by broth dilution method
[12] = test system: Mycobacterium tuberculosis; test: Antimycobacterial activity against isoniazide-rifampicin-streptomycin-ethambutol-resistant Mycobacterium tuberculosis P-4-11after 2 weeks by broth dilution method
[13] = test system: Mycobacterium tuberculosis; test: Antimycobacterial activity against isoniazide-rifampicin-streptomycin-ethambutol-resistant Mycobacterium tuberculosis U-2-15 after 2 weeks by broth dilution method
[14] = test system: Mycobacterium tuberculosis; test: Antimycobacterial activity against isoniazide-rifampicin-streptomycin-ethambutol-resistant Mycobacterium tuberculosis M-1-32 after 2 weeks by broth dilution method
[15] = test system: Mycobacterium tuberculosis; test: Antimycobacterial activity against streptomycin resistant Mycobacterium tuberculosis A-3-47 after 2 weeks by broth dilution method
[16] = test system: Mycobacterium tuberculosis; test: Antimycobacterial activity against isoniazide-rifampicin-streptomycin-ethambutol-resistant Mycobacterium tuberculosis C-1-29 after 2 weeks by broth dilution method
[17] = test system: Mycobacterium tuberculosis; test: Antimycobacterial activity against isoniazide-rifampicin-streptomycin-ethambutol-resistant Mycobacterium tuberculosis S-1-14 after 2 weeks by broth dilution method
[18] = test system: Mycobacterium tuberculosis; test: Antimycobacterial activity against isoniazide-rifampicin-streptomycin-ethambutol-resistant Mycobacterium tuberculosis R-1-38 after 2 weeks by broth dilution method
[19] = test system: Mycobacterium tuberculosis; test: Antimycobacterial activity against isoniazide resistant Mycobacterium tuberculosis K-3-6 after 2 weeks by broth dilution method
[20] = test system: Mycobacterium tuberculosis; test: Antimycobacterial activity against isoniazide-rifampicin-streptomycin-ethambutol-resistant Mycobacterium tuberculosis Z-1-4 after 2 weeks by broth dilution method
[21] = test system: Mycobacterium tuberculosis; test: Antimycobacterial activity against isoniazide-rifampicin resistant Mycobacterium tuberculosis A-2-3 after 2 weeks by broth dilution method
[22] = test system: Mycobacterium tuberculosis; test: Antimycobacterial activity against isoniazide-rifampicin-streptomycin-ethambutol-resistant Mycobacterium tuberculosis P-1-50 after 2 weeks by broth dilution method
[23] = test system: Mycobacterium tuberculosis; test: Antimycobacterial activity against isoniazide resistant Mycobacterium tuberculosis A-2-1 after 2 weeks by broth dilution method
[24] = test system: Mycobacterium tuberculosis; test: Antimycobacterial activity against isoniazide-rifampicin-ethambutol-resistant Mycobacterium tuberculosis N-4-11 after 2 weeks by broth dilution method
[25] = test system: Mycobacterium tuberculosis; test: Antimycobacterial activity against isoniazide-rifampicin-streptomycin-ethambutol-resistant Mycobacterium tuberculosis A-2-6 after 2 weeks by broth dilution method

## C=CCO[C@@H]1O[C@H](CO[C@H]2O[C@H](CO[C@H]3O[C@H](COC(C)=O)[C@H](OC(C)=O)[C@H](OC(C)=O)[C@H]3OC(C)=O)[C@H](OC(C)=O)[C@H](OC(C)=O)[C@H]2OC(C)=O)[C@@H](OC(C)=O)[C@H](OC(C)=O)[C@H]1OC(C)=O
[1]
  MIC: 6.25 µg/mL (≈ 6.48 µM)
[2]
  MIC: 3.13 µg/mL (≈ 3.24 µM)
[3]
  MIC: 6.25 µg/mL (≈ 6.48 µM)
[4]
  MIC: 12.5 µg/mL (≈ 13 µM)
[5]
  MIC: 1.56 µg/mL (≈ 1.62 µM)
[6]
  MIC: 3.13 µg/mL (≈ 3.24 µM)
[7]
  MIC: 6.25 µg/mL (≈ 6.48 µM)
[8]
  MIC: 6.25 µg/mL (≈ 6.48 µM)
[9]
  MIC: 6.25 µg/mL (≈ 6.48 µM)
[10]
  MIC: 12.5 µg/mL (≈ 13 µM)
[11]
  MIC: 3.13 µg/mL (≈ 3.24 µM)
[12]
  MIC: 3.13 µg/mL (≈ 3.24 µM)
[13]
  MIC: 6.25 µg/mL (≈ 6.48 µM)
[14]
  MIC: 3.13 µg/mL (≈ 3.24 µM)
[15]
  MIC: 3.13 µg/mL (≈ 3.24 µM)
[16]
  MIC: 12.5 µg/mL (≈ 13 µM)
[17]
  MIC: 6.25 µg/mL (≈ 6.48 µM)
[18]
  MIC: 6.25 µg/mL (≈ 6.48 µM)
[19]
  MIC: 3.13 µg/mL (≈ 3.24 µM)
[20]
  MIC: 6.25 µg/mL (≈ 6.48 µM)
[21]
  MIC: 3.13 µg/mL (≈ 3.24 µM)
[22]
  MIC: 3.13 µg/mL (≈ 3.24 µM)
[23]
  MIC: 3.13 µg/mL (≈ 3.24 µM)
[24]
  MIC: 3.13 µg/mL (≈ 3.24 µM)
[25]
  MIC: 6.25 µg/mL (≈ 6.48 µM)
